Test results published in ChEMBL document CHEMBL4613209, “Quinolone hybrids and their anti-cancer activities: An overview” (Eur J Med Chem, 2019).

What follows are molecules tested on MGC-803 (assay: Cytotoxicity against human MGC803 cells assessed as reduction in cell viability).
Assay type: functional, cell-based

Row | SMILES | IC50
1 | C[C@H]1COc2c(N3CCN(C)CC3)c(F)cc3c(=O)c(-c4nnc(NC(=O)CCCCCCC(=O)NO)s4)cn1c23 | 600 to 3100 nM
2 | C[C@H]1COc2c(N3CCN(C)CC3)c(F)cc3c(=O)c(-c4nnc(NC(=O)CCCCCCC(=O)Nc5ccccc5N)s4)cn1c23 | 46 to 203 nM
3 | C[C@H]1COc2c(N3CCN(C)CC3)c(F)cc3c(=O)c(-c4nnc(NC(=O)CCCC(=O)NO)s4)cn1c23 | 19 to 127 nM
4 | C[C@H]1COc2c(N3CCN(C)CC3)c(F)cc3c(=O)c(-c4nnc(NC(=O)CCCCCCC(=O)O)s4)cn1c23 | 1100 to 14300 nM
5 | C[C@H]1COc2c(N3CCN(C)CC3)c(F)cc3c(=O)c(-c4nnc(NC(=O)CCCCCC(=O)O)s4)cn1c23 | 1100 to 14300 nM
6 | C[C@H]1COc2c(N3CCN(C)CC3)c(F)cc3c(=O)c(-c4nnc(NC(=O)CCCCC(=O)O)s4)cn1c23 | 1100 to 14300 nM
7 | C[C@H]1COc2c(N3CCN(C)CC3)c(F)cc3c(=O)c(-c4nnc(NC(=O)CCCCCC(=O)NO)s4)cn1c23 | 19 to 127 nM
8 | C[C@H]1COc2c(N3CCN(C)CC3)c(F)cc3c(=O)c(-c4nnc(NC(=O)CCCCCCCC(=O)Nc5ccccc5N)s4)cn1c23 | 46 to 203 nM
9 | C[C@H]1COc2c(N3CCN(C)CC3)c(F)cc3c(=O)c(-c4nnc(NC(=O)CCCCC(=O)NO)s4)cn1c23 | 19 to 127 nM

Each molecule was assayed on GES1 (assay: Cytotoxicity against human GES-1 cells assessed as reduction in cell viability).
Assay type: cell-based

Row | SMILES | IC50
10 | C[C@H]1COc2c(N3CCN(C)CC3)c(F)cc3c(=O)c(-c4nnc(NC(=O)CCCCCCC(=O)NO)s4)cn1c23 | > 100000 nM
11 | C[C@H]1COc2c(N3CCN(C)CC3)c(F)cc3c(=O)c(-c4nnc(NC(=O)CCCCCCC(=O)Nc5ccccc5N)s4)cn1c23 | > 81500 nM
12 | C[C@H]1COc2c(N3CCN(C)CC3)c(F)cc3c(=O)c(-c4nnc(NC(=O)CCCC(=O)NO)s4)cn1c23 | > 81500 nM
13 | C[C@H]1COc2c(N3CCN(C)CC3)c(F)cc3c(=O)c(-c4nnc(NC(=O)CCCCCCC(=O)O)s4)cn1c23 | > 81500 nM
14 | C[C@H]1COc2c(N3CCN(C)CC3)c(F)cc3c(=O)c(-c4nnc(NC(=O)CCCCCC(=O)O)s4)cn1c23 | > 81500 nM
15 | C[C@H]1COc2c(N3CCN(C)CC3)c(F)cc3c(=O)c(-c4nnc(NC(=O)CCCCC(=O)O)s4)cn1c23 | > 81500 nM
16 | C[C@H]1COc2c(N3CCN(C)CC3)c(F)cc3c(=O)c(-c4nnc(NC(=O)CCCCCC(=O)NO)s4)cn1c23 | > 81500 nM
17 | C[C@H]1COc2c(N3CCN(C)CC3)c(F)cc3c(=O)c(-c4nnc(NC(=O)CCCCCCCC(=O)Nc5ccccc5N)s4)cn1c23 | > 81500 nM
18 | C[C@H]1COc2c(N3CCN(C)CC3)c(F)cc3c(=O)c(-c4nnc(NC(=O)CCCCC(=O)NO)s4)cn1c23 | > 81500 nM

Each molecule was assayed on NCI-H460 (assay: Cytotoxicity against human NCI-H460 cells assessed as reduction in cell viability).
Assay type: functional, cell-based

Row | SMILES | IC50
19 | C[C@H]1COc2c(N3CCN(C)CC3)c(F)cc3c(=O)c(-c4nnc(NC(=O)CCCCCCC(=O)NO)s4)cn1c23 | 600 to 3100 nM
20 | C[C@H]1COc2c(N3CCN(C)CC3)c(F)cc3c(=O)c(-c4nnc(NC(=O)CCCCCCC(=O)Nc5ccccc5N)s4)cn1c23 | 46 to 203 nM
21 | C[C@H]1COc2c(N3CCN(C)CC3)c(F)cc3c(=O)c(-c4nnc(NC(=O)CCCC(=O)NO)s4)cn1c23 | 19 to 127 nM
22 | C[C@H]1COc2c(N3CCN(C)CC3)c(F)cc3c(=O)c(-c4nnc(NC(=O)CCCCCCC(=O)O)s4)cn1c23 | 1100 to 14300 nM
23 | C[C@H]1COc2c(N3CCN(C)CC3)c(F)cc3c(=O)c(-c4nnc(NC(=O)CCCCCC(=O)O)s4)cn1c23 | 1100 to 14300 nM
24 | C[C@H]1COc2c(N3CCN(C)CC3)c(F)cc3c(=O)c(-c4nnc(NC(=O)CCCCC(=O)O)s4)cn1c23 | 1100 to 14300 nM
25 | C[C@H]1COc2c(N3CCN(C)CC3)c(F)cc3c(=O)c(-c4nnc(NC(=O)CCCCCC(=O)NO)s4)cn1c23 | 19 to 127 nM
26 | C[C@H]1COc2c(N3CCN(C)CC3)c(F)cc3c(=O)c(-c4nnc(NC(=O)CCCCCCCC(=O)Nc5ccccc5N)s4)cn1c23 | 46 to 203 nM
27 | C[C@H]1COc2c(N3CCN(C)CC3)c(F)cc3c(=O)c(-c4nnc(NC(=O)CCCCC(=O)NO)s4)cn1c23 | 19 to 127 nM

What follows are molecules tested on SW-620 (assay: Cytotoxicity against human SW620 cells assessed as reduction in cell viability).
Assay type: functional, cell-based

Row | SMILES | IC50
28 | C[C@H]1COc2c(N3CCN(C)CC3)c(F)cc3c(=O)c(-c4nnc(NC(=O)CCCCCCC(=O)NO)s4)cn1c23 | 600 to 3100 nM
29 | C[C@H]1COc2c(N3CCN(C)CC3)c(F)cc3c(=O)c(-c4nnc(NC(=O)CCCCCCC(=O)Nc5ccccc5N)s4)cn1c23 | 46 to 203 nM
30 | C[C@H]1COc2c(N3CCN(C)CC3)c(F)cc3c(=O)c(-c4nnc(NC(=O)CCCC(=O)NO)s4)cn1c23 | 19 to 127 nM
31 | C[C@H]1COc2c(N3CCN(C)CC3)c(F)cc3c(=O)c(-c4nnc(NC(=O)CCCCCCC(=O)O)s4)cn1c23 | 1100 to 14300 nM
32 | C[C@H]1COc2c(N3CCN(C)CC3)c(F)cc3c(=O)c(-c4nnc(NC(=O)CCCCCC(=O)O)s4)cn1c23 | 1100 to 14300 nM
33 | C[C@H]1COc2c(N3CCN(C)CC3)c(F)cc3c(=O)c(-c4nnc(NC(=O)CCCCC(=O)O)s4)cn1c23 | 1100 to 14300 nM
34 | C[C@H]1COc2c(N3CCN(C)CC3)c(F)cc3c(=O)c(-c4nnc(NC(=O)CCCCCC(=O)NO)s4)cn1c23 | 19 to 127 nM
35 | C[C@H]1COc2c(N3CCN(C)CC3)c(F)cc3c(=O)c(-c4nnc(NC(=O)CCCCCCCC(=O)Nc5ccccc5N)s4)cn1c23 | 46 to 203 nM
36 | C[C@H]1COc2c(N3CCN(C)CC3)c(F)cc3c(=O)c(-c4nnc(NC(=O)CCCCC(=O)NO)s4)cn1c23 | 19 to 127 nM

The molecules below were run on MCF7 (assay: Cytotoxicity against human MCF7 cells assessed as reduction in cell viability).
Assay type: functional, cell-based

Row | SMILES | IC50
37 | C[C@H]1COc2c(N3CCN(C)CC3)c(F)cc3c(=O)c(-c4nnc(NC(=O)CCCCCCC(=O)NO)s4)cn1c23 | 600 to 3100 nM
38 | C[C@H]1COc2c(N3CCN(C)CC3)c(F)cc3c(=O)c(-c4nnc(NC(=O)CCCCCCC(=O)Nc5ccccc5N)s4)cn1c23 | 46 to 203 nM
39 | C[C@H]1COc2c(N3CCN(C)CC3)c(F)cc3c(=O)c(-c4nnc(NC(=O)CCCC(=O)NO)s4)cn1c23 | 19 to 127 nM
40 | C[C@H]1COc2c(N3CCN(C)CC3)c(F)cc3c(=O)c(-c4nnc(NC(=O)CCCCCCC(=O)O)s4)cn1c23 | 1100 to 14300 nM
41 | C[C@H]1COc2c(N3CCN(C)CC3)c(F)cc3c(=O)c(-c4nnc(NC(=O)CCCCCC(=O)O)s4)cn1c23 | 1100 to 14300 nM
42 | C[C@H]1COc2c(N3CCN(C)CC3)c(F)cc3c(=O)c(-c4nnc(NC(=O)CCCCC(=O)O)s4)cn1c23 | 1100 to 14300 nM
43 | C[C@H]1COc2c(N3CCN(C)CC3)c(F)cc3c(=O)c(-c4nnc(NC(=O)CCCCCC(=O)NO)s4)cn1c23 | 19 to 127 nM
44 | C[C@H]1COc2c(N3CCN(C)CC3)c(F)cc3c(=O)c(-c4nnc(NC(=O)CCCCCCCC(=O)Nc5ccccc5N)s4)cn1c23 | 46 to 203 nM
45 | C[C@H]1COc2c(N3CCN(C)CC3)c(F)cc3c(=O)c(-c4nnc(NC(=O)CCCCC(=O)NO)s4)cn1c23 | 19 to 127 nM

Each molecule was assayed on HepG2 (assay: Cytotoxicity against human HepG2 cells assessed as reduction in cell viability).
Assay type: functional, cell-based

Row | SMILES | IC50
46 | C[C@H]1COc2c(N3CCN(C)CC3)c(F)cc3c(=O)c(-c4nnc(NC(=O)CCCCCCC(=O)NO)s4)cn1c23 | 600 to 3100 nM
47 | C[C@H]1COc2c(N3CCN(C)CC3)c(F)cc3c(=O)c(-c4nnc(NC(=O)CCCCCCC(=O)Nc5ccccc5N)s4)cn1c23 | 46 to 203 nM
48 | C[C@H]1COc2c(N3CCN(C)CC3)c(F)cc3c(=O)c(-c4nnc(NC(=O)CCCC(=O)NO)s4)cn1c23 | 19 to 127 nM
49 | C[C@H]1COc2c(N3CCN(C)CC3)c(F)cc3c(=O)c(-c4nnc(NC(=O)CCCCCCC(=O)O)s4)cn1c23 | 1100 to 14300 nM
50 | C[C@H]1COc2c(N3CCN(C)CC3)c(F)cc3c(=O)c(-c4nnc(NC(=O)CCCCCC(=O)O)s4)cn1c23 | 1100 to 14300 nM
51 | C[C@H]1COc2c(N3CCN(C)CC3)c(F)cc3c(=O)c(-c4nnc(NC(=O)CCCCC(=O)O)s4)cn1c23 | 1100 to 14300 nM
52 | C[C@H]1COc2c(N3CCN(C)CC3)c(F)cc3c(=O)c(-c4nnc(NC(=O)CCCCCC(=O)NO)s4)cn1c23 | 19 to 127 nM
53 | C[C@H]1COc2c(N3CCN(C)CC3)c(F)cc3c(=O)c(-c4nnc(NC(=O)CCCCCCCC(=O)Nc5ccccc5N)s4)cn1c23 | 46 to 203 nM
54 | C[C@H]1COc2c(N3CCN(C)CC3)c(F)cc3c(=O)c(-c4nnc(NC(=O)CCCCC(=O)NO)s4)cn1c23 | 19 to 127 nM

The molecules below were run on PC-3 (assay: Cytotoxicity against human PC3 cells assessed as reduction in cell viability).
Assay type: functional, cell-based

Row | SMILES | IC50
55 | C[C@H]1COc2c(N3CCN(C)CC3)c(F)cc3c(=O)c(-c4nnc(NC(=O)CCCCCCC(=O)NO)s4)cn1c23 | 600 to 3100 nM
56 | C[C@H]1COc2c(N3CCN(C)CC3)c(F)cc3c(=O)c(-c4nnc(NC(=O)CCCCCCC(=O)Nc5ccccc5N)s4)cn1c23 | 46 to 203 nM
57 | C[C@H]1COc2c(N3CCN(C)CC3)c(F)cc3c(=O)c(-c4nnc(NC(=O)CCCC(=O)NO)s4)cn1c23 | 19 to 127 nM
58 | C[C@H]1COc2c(N3CCN(C)CC3)c(F)cc3c(=O)c(-c4nnc(NC(=O)CCCCCCC(=O)O)s4)cn1c23 | 1100 to 14300 nM
59 | C[C@H]1COc2c(N3CCN(C)CC3)c(F)cc3c(=O)c(-c4nnc(NC(=O)CCCCCC(=O)O)s4)cn1c23 | 1100 to 14300 nM
60 | C[C@H]1COc2c(N3CCN(C)CC3)c(F)cc3c(=O)c(-c4nnc(NC(=O)CCCCC(=O)O)s4)cn1c23 | 1100 to 14300 nM
61 | C[C@H]1COc2c(N3CCN(C)CC3)c(F)cc3c(=O)c(-c4nnc(NC(=O)CCCCCC(=O)NO)s4)cn1c23 | 19 to 127 nM
62 | C[C@H]1COc2c(N3CCN(C)CC3)c(F)cc3c(=O)c(-c4nnc(NC(=O)CCCCCCCC(=O)Nc5ccccc5N)s4)cn1c23 | 46 to 203 nM
63 | C[C@H]1COc2c(N3CCN(C)CC3)c(F)cc3c(=O)c(-c4nnc(NC(=O)CCCCC(=O)NO)s4)cn1c23 | 19 to 127 nM
